According to ChEMBL document CHEMBL4312017, “Synthesis and discovery of new compounds bearing coumarin scaffold for the treatment of pulmonary fibrosis” (Eur J Med Chem, 2020):
The source made the active and inactive calls. The rule behind the calls is not given here.

Experiments:
[1] = system: Mus musculus; experiment: Antifibrotic activity against BLM-induced C57BL/6 mouse pulmonary fibrosis model assessed as increase in time for reduction of alveoli at 100 mg/kg, po administered for 28 days and measured on day 14 and 28 by HE staining based fluorescence microscopy; assay type: functional, organism-based
[2] = system: Mus musculus; experiment: Antifibrotic activity against BLM-induced C57BL/6 mouse pulmonary fibrosis model assessed as decrease in bronchioles inflammatory cell infiltration at 50 mg/kg, po administered for 28 days and measured on day 14 and 28 by HE staining based fluorescence microscopy; assay type: functional, organism-based
[3] = system: Mus musculus; experiment: Antifibrotic activity against BLM-induced C57BL/6 mouse pulmonary fibrosis model assessed as decrease in bronchioles inflammatory cell infiltration at 100 mg/kg, po administered for 28 days and measured on day 14 and 28 by HE staining based fluorescence microscopy; assay type: functional, organism-based
[4] = system: Mus musculus; experiment: Antifibrotic activity against BLM-induced C57BL/6 mouse pulmonary fibrosis model assessed as increase in time for reduction of alveoli at 50 mg/kg, po administered for 28 days and measured on day 14 and 28 by HE staining based fluorescence microscopy; assay type: functional, organism-based
[5] = system: Mus musculus; experiment: Antifibrotic activity against BLM-induced C57BL/6 mouse pulmonary fibrosis model assessed as reduction in neutrophils in BALF at 100 mg/kg, po administered for 28 days and measured on day 28; assay type: functional, organism-based
[6] = system: NRK-49F; experiment: Inhibition of TGF-beta-induced collagen accumulation in rat NRK-49F cells incubated for 2 days by PSR staining based microscopic analysis; assay type: functional, cell-based
[7] = system: Mus musculus; experiment: Antifibrotic activity against BLM-induced C57BL/6 mouse pulmonary fibrosis model assessed as reduction in lymphocytes in BALF at 50 mg/kg, po administered for 28 days and measured on day 28; assay type: functional, organism-based
[8] = system: Mus musculus; experiment: Antifibrotic activity against BLM-induced C57BL/6 mouse pulmonary fibrosis model assessed as decrease in perivascular inflammatory cell infiltration at 50 mg/kg, po administered for 28 days and measured on day 14 and 28 by HE staining based fluorescence microscopy; assay type: functional, organism-based
[9] = Half life in Sprague-Dawley rat 10 mg/kg, po measured upto 24 hrs; assay type: ADME, organism-based; details: in vivo
[10] = system: Mus musculus; experiment: Antifibrotic activity against BLM-induced C57BL/6 mouse pulmonary fibrosis model assessed as decrease in bronchiolar epithelial cell shedding at 50 mg/kg, po administered for 28 days and measured on day 14 and 28 by HE staining based fluorescence microscopy; assay type: functional, organism-based
[11] = system: Mus musculus; experiment: Antifibrotic activity against BLM-induced C57BL/6 mouse pulmonary fibrosis model assessed as reduction in lymphocytes in BALF at 100 mg/kg, po administered for 28 days and measured on day 28; assay type: functional, organism-based
[12] = AUC (0 to t) in Sprague-Dawley rat at 5 mg/kg, iv measured upto 24 hrs; assay type: ADME, organism-based; parameters: dose 5 mg/kg, time < 24 hr, route intravenous; details: in vivo
[13] = system: Mus musculus; experiment: Antifibrotic activity against BLM-induced C57BL/6 mouse pulmonary fibrosis model assessed as decrease in bronchiolar epithelial cell shedding at 100 mg/kg, po administered for 28 days and measured on day 14 and 28 by HE staining based fluorescence microscopy; assay type: functional, organism-based
[14] = system: Mus musculus; experiment: Antifibrotic activity against BLM-induced C57BL/6 mouse pulmonary fibrosis model assessed as decrease in bronchial epithelial vacuolar degeneration at 50 mg/kg, po administered for 28 days and measured on day 14 and 28 by HE staining based fluorescence microscopy; assay type: functional, organism-based
[15] = system: Mus musculus; experiment: Antifibrotic activity against C57BL/6 mouse pulmonary fibrosis model assessed as reduction in bleomycin-iduced hydroxyproline level at 50 mg/kg, po administered for 28 days and measured on day 14 and 28 by spectrophotometry; assay type: functional, organism-based
[16] = system: Mus musculus; experiment: Antifibrotic activity against BLM-induced C57BL/6 mouse pulmonary fibrosis model assessed as decrease in bronchial epithelial vacuolar degeneration at 100 mg/kg, po administered for 28 days and measured on day 14 and 28 by HE staining based fluorescence microscopy; assay type: functional, organism-based
[17] = system: Mus musculus; experiment: Antifibrotic activity against BLM-induced C57BL/6 mouse pulmonary fibrosis model assessed as reduction in total white blood cells in BALF at 100 mg/kg, po administered for 28 days and measured on day 28; assay type: functional, organism-based
[18] = Clearance in Sprague-Dawley rat 10 mg/kg, po measured upto 24 hrs; assay type: ADME, organism-based; details: in vivo
[19] = system: Mus musculus; experiment: Antifibrotic activity against BLM-induced C57BL/6 mouse pulmonary fibrosis model assessed as decrease in perivascular inflammatory cell infiltration at 100 mg/kg, po administered for 28 days and measured on day 14 and 28 by HE staining based fluorescence microscopy; assay type: functional, organism-based
[20] = Toxicity in BLM-induced C57BL/6 mouse pulmonary fibrosis model assessed as survival rate at 50 and 100 mg/kg, po observed for 28 days; assay type: organism-based; details: in vivo
[21] = Cytotoxicity against rat NRK-49F cells assessed as cell viability at 10 uM incubated for 72 hrs by MTT assay; assay type: cell-based; details: read-out: Activity
[22] = Cmax in Sprague-Dawley rat at 10 mg/kg, po measured upto 24 hrs; assay type: ADME, organism-based; parameters: dose 10 mg/kg, route oral; details: in vivo
[23] = Half life in Sprague-Dawley rat at 5 mg/kg, iv measured upto 24 hrs; assay type: ADME, organism-based; details: in vivo
[24] = system: NIH3T3; experiment: Inhibition of TGF-beta-induced […] migration in mouse NIH/3T3 cells at 1 uM incubated for 24 hrs by Transwell assay; assay type: functional, cell-based
[25] = system: Mus musculus; experiment: Antifibrotic activity against C57BL/6 mouse pulmonary fibrosis model assessed as reduction in bleomycin-iduced hydroxyproline level at 100 mg/kg, po administered for 28 days and measured on day 14 and 28 by spectrophotometry; assay type: functional, organism-based
[26] = Oral bioavailability in Sprague-Dawley rat 10 mg/kg measured upto 24 hrs; assay type: ADME, organism-based; details: in vivo
[27] = Tmax in Sprague-Dawley rat 10 mg/kg, po measured upto 24 hrs; assay type: ADME, organism-based; details: in vivo
[28] = system: Mus musculus; experiment: Antifibrotic activity against BLM-induced C57BL/6 mouse pulmonary fibrosis model assessed as reduction in total white blood cells in BALF at 50 mg/kg, po administered for 28 days and measured on day 28; assay type: functional, organism-based
[29] = system: NRK-49F; experiment: Inhibition of TGF-beta-induced collagen accumulation in rat NRK-49F cells at 10 uM incubated for 2 days by PSR staining based microscopic analysis relative to control; assay type: functional; details: 48 h
[30] = AUC (0 to t) in Sprague-Dawley rat 10 mg/kg, po measured upto 24 hrs; assay type: ADME, organism-based; parameters: time < 24 hr, dose 10 mg/kg, route oral; details: in vivo
[31] = system: Mus musculus; experiment: Antifibrotic activity against BLM-induced C57BL/6 mouse pulmonary fibrosis model assessed as reduction in neutrophils in BALF at 50 mg/kg, po administered for 28 days and measured on day 28; assay type: functional, organism-based
[32] = target: T1, Transforming growth factor beta-1 proprotein/Smad3 (Rattus norvegicus) (UniProt P84025+P17246); experiment: Inhibition of TGFbeta/Smad3 pathway in rat NRK-49F cells assessed as reduction in TGF-beta1-induced Smad3 phosphorylation at 20 and 40 uM incubated for 24 hrs by Western blot analysis; assay type: cell-based
[33] = system: Mus musculus; experiment: Antifibrotic activity against BLM-induced C57BL/6 mouse pulmonary fibrosis model assessed as decrease in destruction alveolar structure at 50 mg/kg, po administered for 28 days and measured on day 14 and 28 by HE staining based fluorescence microscopy; assay type: functional, organism-based
[34] = Tmax in Sprague-Dawley rat at 5 mg/kg, iv measured upto 24 hrs; assay type: ADME, organism-based; details: in vivo
[35] = target: T1, Transforming growth factor beta-1 proprotein/Smad3 (Rattus norvegicus); experiment: Inhibition of TGFbeta/Smad3 pathway in rat NRK-49F cells assessed as reduction in TGF-beta1-induced COL1A1 expression in at 20 and 40 uM incubated for 24 hrs by Western blot analysis; assay type: cell-based
[36] = Cmax in Sprague-Dawley rat at 5 mg/kg, iv measured upto 24 hrs; assay type: ADME, organism-based; parameters: dose 5 mg/kg, route intravenous; details: in vivo
[37] = system: Mus musculus; experiment: Antifibrotic activity against BLM-induced C57BL/6 mouse pulmonary fibrosis model assessed as decrease in destruction alveolar structure at 100 mg/kg, po administered for 28 days and measured on day 14 and 28 by HE staining based fluorescence microscopy; assay type: functional, organism-based
[38] = target: T1, Transforming growth factor beta-1 proprotein/Smad3 (Rattus norvegicus); experiment: Inhibition of TGFbeta/Smad3 pathway in rat NRK-49F cells assessed as reduction in TGF-beta1-induced alpha-SMA expression in at 20 and 40 uM incubated for 24 hrs by Western blot analysis; assay type: cell-based

T1 sequence (P17246 whole entry, looked up): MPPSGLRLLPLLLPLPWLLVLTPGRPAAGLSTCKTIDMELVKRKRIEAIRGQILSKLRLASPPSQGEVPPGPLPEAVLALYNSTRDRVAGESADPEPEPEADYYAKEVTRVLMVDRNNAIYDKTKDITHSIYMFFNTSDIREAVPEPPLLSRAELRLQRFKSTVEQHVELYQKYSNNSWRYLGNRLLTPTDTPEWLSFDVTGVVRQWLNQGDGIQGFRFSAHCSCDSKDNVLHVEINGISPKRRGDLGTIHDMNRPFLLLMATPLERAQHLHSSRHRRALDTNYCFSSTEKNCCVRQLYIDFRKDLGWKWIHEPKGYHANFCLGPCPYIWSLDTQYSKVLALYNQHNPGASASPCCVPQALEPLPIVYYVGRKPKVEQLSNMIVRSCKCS
T1 sequence (P84025 whole entry, looked up): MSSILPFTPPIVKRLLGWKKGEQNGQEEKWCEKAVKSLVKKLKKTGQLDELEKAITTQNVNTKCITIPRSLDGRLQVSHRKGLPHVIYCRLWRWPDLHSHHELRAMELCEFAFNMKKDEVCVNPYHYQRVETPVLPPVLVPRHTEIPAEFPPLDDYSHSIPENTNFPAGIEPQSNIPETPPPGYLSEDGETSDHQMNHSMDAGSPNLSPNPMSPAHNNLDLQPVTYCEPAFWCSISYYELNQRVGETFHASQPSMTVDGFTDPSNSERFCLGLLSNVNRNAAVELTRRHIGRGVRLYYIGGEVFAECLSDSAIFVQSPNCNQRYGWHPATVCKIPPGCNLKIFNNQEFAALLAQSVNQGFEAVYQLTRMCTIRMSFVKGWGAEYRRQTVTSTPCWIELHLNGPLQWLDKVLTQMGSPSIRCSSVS

In the case of O=C(CN1CCCCC1)Nc1ccc(Oc2cc(=O)oc3ccccc23)cc1, the Activity [1] is reported as “Active”, the Activity [2] is reported as “Active” and the Activity [3] is reported as “Active”. For the same compound, the Activity [4] was “Active”, the Activity [5] was “Active” and the inhibition [6] was “Dose-dependent effect”. For the same compound, the IC50 ([6]; 48 h) was 4.31 µM, the Activity [7] was “Active” and the Activity [8] was “Active”. For the same compound, the half-life [9] was 13.1 h, the Activity [10] was “Active” and the Activity [11] was “Active”. The AUC(0-t) at 24 h [12] was 1390 ng·h/mL, the Activity [13] was “Active” and the Activity [14] was “Active”. For the same compound, the Activity [15] was “inactive”, the Activity [16] was “Active” and the Activity [17] was “Active”. The CL/F [18] was 108 mL/min/kg, the Activity [19] was “Active” and the survival at 672 h [20] was 90%. The viability at 72 h, 10 µM [21] was 93.6%, the Cmax [22] was 74.7 ng/mL and the half-life [23] was 7.42 h. For the same compound, the inhibition [24] was “Active”, the Activity [25] was “Active” and the bioavailability [26] was 39.9%. For the same compound, the Tmax [27] was 0.63 h, the Activity [28] was “Active” and the inhibition at 10 µM [29] was 85.1%. For the same compound, the AUC(0-t) at 24 h [30] was 1100 ng·h/mL, the Activity [31] was “Active” and the inhibition [32] was “Active”. For the same compound, the Activity [33] was “Active”, the Tmax [34] was 2.68 h and the inhibition [35] was “Active”. The Cmax [36] was 316 ng/mL, the Activity [37] was “Active” and the inhibition [38] was “Active”.
